Test results reported in ChEMBL document CHEMBL1139809, “Antinociceptive activity of furan-containing congeners of improgan and ranitidine” (2007).

These molecules were tested on Rattus norvegicus (assay: Antinociceptive activity in icv dosed Sprague-Dawley rat assessed as latency to hind lift after 10 mins by hot plate test).
Format: functional

| SMILES | ED50 [nmol] |
| --- | --- |
| CN/C(=N/C#N)NCCCCCCc1ccc(CN(C)C)o1 | 120 |
| CN(C)Cc1ccc(CCCCNC(=O)c2ccccc2)o1 | 203 |
| CC(=O)NCCCCc1ccc(CN(C)C)o1 | 126 |
| CN/C(=C/[N+](=O)[O-])NCCCCCCc1ccc(CN(C)C)o1 | 25 |
| CN(C)Cc1ccc(CCCCCCNC(=O)Nc2ccccc2)o1 | 284 |
| CN(C)Cc1ccc(CCCCc2ccccc2)o1 | 143 |
| CN/C(=N/C#N)NCCCCc1ccc(CN(C)C)o1 | 159 |
| CN(C)Cc1ccc(CCCCN)o1 | 689 |
| CN(C)Cc1ccc(CCCCNc2ccccc2)o1 | 131 |
| CN/C(=C/[N+](=O)[O-])NCCCCc1ccc(CN(C)C)o1 | 111 |
| CN(C)Cc1ccc(CCCCCCNC(=O)Nc2ccc(I)cc2)o1 | >149 |
| CN(C)Cc1ccc(CCCCNC(=O)Nc2ccc(I)cc2)o1 | >226 |
